According to patent publication US10287269B2, “Pyrazolyl pyrimidinone compounds as PDE2 inhibitors” (Merck Sharp & Dohme Corp., priority 2015, dated 2019):
Where two headings read alike, the source gives them in different places.

Biological target: T1, Rhesus PDE2A3 (Macaca mulatta, UniProt B3VTJ2)
T1 construct: made in house; host or cells: AD293 cells, transient transfection, pcDNA3.3-TOPO; lysate supernatant used as enzyme
T1 sequence (B3VTJ2 1-941): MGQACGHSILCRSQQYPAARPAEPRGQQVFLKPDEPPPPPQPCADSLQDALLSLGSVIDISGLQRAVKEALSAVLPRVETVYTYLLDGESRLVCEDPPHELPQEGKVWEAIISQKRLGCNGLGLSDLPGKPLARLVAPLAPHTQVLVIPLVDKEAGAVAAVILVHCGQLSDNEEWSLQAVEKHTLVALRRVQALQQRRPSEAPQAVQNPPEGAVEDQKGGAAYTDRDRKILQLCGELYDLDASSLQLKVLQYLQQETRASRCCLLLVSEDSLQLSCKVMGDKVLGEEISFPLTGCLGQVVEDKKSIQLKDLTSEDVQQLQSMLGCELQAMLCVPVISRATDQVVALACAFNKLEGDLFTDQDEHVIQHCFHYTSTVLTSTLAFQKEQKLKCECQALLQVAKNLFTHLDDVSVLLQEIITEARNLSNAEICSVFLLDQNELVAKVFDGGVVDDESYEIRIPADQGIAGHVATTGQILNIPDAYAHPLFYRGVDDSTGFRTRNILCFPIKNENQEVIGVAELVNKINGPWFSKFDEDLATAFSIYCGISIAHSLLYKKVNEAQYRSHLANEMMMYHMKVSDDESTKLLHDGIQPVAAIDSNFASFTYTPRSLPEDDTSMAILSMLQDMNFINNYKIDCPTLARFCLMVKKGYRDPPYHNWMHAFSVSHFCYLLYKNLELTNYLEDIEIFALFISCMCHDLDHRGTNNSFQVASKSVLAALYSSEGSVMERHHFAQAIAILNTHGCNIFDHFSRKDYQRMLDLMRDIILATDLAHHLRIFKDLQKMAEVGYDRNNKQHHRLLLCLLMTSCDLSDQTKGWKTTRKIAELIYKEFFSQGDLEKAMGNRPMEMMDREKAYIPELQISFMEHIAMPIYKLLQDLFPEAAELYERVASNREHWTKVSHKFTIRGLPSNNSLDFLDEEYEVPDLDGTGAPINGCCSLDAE
Test: PDE2 fluorescence polarization (IMAP FP) inhibition assay, rhesus enzyme
Format: biochemical, rhesus macaque
Outline: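 Lysate of AD293 cells transiently expressing rhesus PDE2A3, diluted for ~20% substrate conversion, with 50 nM FAM-cAMP and 1 uM cGMP activator in pH 7.2 Tris/MgCl2 buffer, 60 min at room temperature.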

[1] = Lab A, read-out: Rhesus PDE2 Ki (nM) Lab A
[2] = Lab B, read-out: Rhesus PDE2 Ki (nM) Lab B

| SMILES | Ki [1] [nM] | Ki [2] [nM] |
| --- | --- | --- |
| COc1ccc(Cc2nc(-c3cnn(C(C)c4ccc(S(F)(F)(F)(F)F)cc4)c3)cc(=O)[nH]2)cc1OC (single isomer, unassigned) [Example 65, (S)- or (R)-2-(3,4-dimethoxybenzyl)-6-(1-(1-(4-(pentafluorosulfanyl)phenyl)ethyl)-1H-pyrazol-4-yl)pyrimidin-4(3H)-one 4(3H)-one] | 22 | 9.9 |
| Cc1nc(-c2cnn(C(C)c3ccc(C(F)(F)F)cc3)c2C)cc(=O)[nH]1 (single isomer, unassigned) [Example 81, (R)- or (S)-2-methyl-6-(5-methyl-1-(1-(4-(trifluoromethyl)phenyl)ethyl)-1H-pyrazol-4-yl)pyrimidin-4(3H)-one] | – | 232 |
| Cc1nc(-n2ccc([C@H](C)c3ccc(C(F)(F)F)cc3)n2)cc(=O)[nH]1 (single isomer, unassigned) [Example 6] | – | 466 |
| Cc1nc(-c2cnn(C3(c4ccc(C(F)(F)F)cc4F)CCC3)c2)cc(=O)[nH]1 [Example 37, 6-(1-(1-(2-fluoro-4-(trifluoromethyl)phenyl)cyclobutyl)-1H-pyrazol-4-yl)-2-methylpyrimidin-4(3H)-one] | 13.1 | – |
| Cc1nc(-n2cc(Cc3ccc(C(F)(F)F)cc3)cn2)cc(=O)[nH]1 [Example 48, 2-methyl-6-(4-(4-(trifluoromethyl)benzyl)-1H-pyrazol-1-yl)pyrimidin-4(3H)-one] | – | 333 |
| COc1ccc(Cc2nc(-n3ccc(C(C)c4ccc(C(F)(F)F)cc4)n3)cc(=O)[nH]2)cc1OC (single isomer, unassigned) [Example 134, (R)- or (S)-2-(3,4-dimethoxybenzyl)-6-(3-(1-(4-(trifluoromethyl)phenyl)ethyl)-1H-pyrazol-1-yl)pyrimidin-4(3H)-one] | – | 110 |
| Cc1nc(-c2cnn(C(C)c3ccc(OC(F)(F)F)cc3)c2)cc(=O)[nH]1 (single isomer, unassigned) [Example 127, (R)- or (S)-2-methyl-6-(1-(1-(4-(trifluoromethoxy)phenyl)ethyl)-1H-pyrazol-4-yl)pyrimidin-4(3H)-one] | – | 130 |
| CCc1ccc(C(C)n2cc(-c3cc(=O)[nH]c(C)n3)cn2)c(F)c1 (single isomer, unassigned) [Example 101, (R)- or (S)-6-(1-(1-(4-ethyl-2-fluorophenyl)ethyl)-1H-pyrazol-4-yl)-2-methylpyrimidin-4(3H)-one] | 25.4 | – |
| Cc1nc(-c2cnn(Cc3ccc(OC(F)(F)F)cc3)c2)cc(=O)[nH]1 [Example 29, 2-Methyl-6-(1-(4-(trifluoromethoxy)benzyl)-1H-pyrazol-4-yl)pyrimidin-4(3H)-one] | – | 1210 |
| COc1ccc(Cc2nc(-c3cnn(C(C)c4ccc(C(F)(F)F)cc4F)c3)cc(=O)[nH]2)cc1OC (single isomer, unassigned) [Example 67] | 0.2 | 0.1 |
| COc1ccc(Cc2nc(-n3ccc(C(C)c4ccc(C(F)(F)F)cc4)n3)cc(=O)[nH]2)cc1OC (single isomer, unassigned) [Example 133, (R)- or (S)-2-(3,4-dimethoxybenzyl)-6-(3-(1-(4-(trifluoromethyl)phenyl)ethyl)-1H-pyrazol-1-yl)pyrimidin-4(3H)-one] | – | 64.8 |
| Cc1nc(-c2cnn(C(C)c3ccc(C(F)(F)F)cc3)c2C)cc(=O)[nH]1 (single isomer, unassigned) [Example 82, (S)- or (R)-2-methyl-6-(5-methyl-1-{(1R)-1-[4-(trifluoromethyl)phenyl]ethyl}-1H-pyrazol-4-yl)pyrimidin-4(3H)-one] | – | 192 |
| COc1ccc(Cc2nc(-c3cnn(C(C)c4ccc(C(F)(F)F)cc4)c3)cc(=O)[nH]2)cc1OC (single isomer, unassigned) [Example 60, (R)- or (S)-2-(3,4-dimethoxybenzyl)-6-(1-(1-4-(trifluoromethyl)phenyl)ethyl)-1H-pyrazol-4-yl)pyrimidin-4(3H)-one] | 3.6 | 2.4 |
| Cc1ccc(C(C)n2cc(-c3cc(=O)[nH]c(C)n3)cn2)cc1 (centres unmarked) [Example 153, 2-methyl-6-(1-(1-(p-tolyl)ethyl)-1H-pyrazol-4-yl)pyrimidin-4(3H)-one] | – | 825 |
| Cc1nc(-n2cc(C(C)c3ccc(C(F)(F)F)cc3F)cn2)cc(=O)[nH]1 (single isomer, unassigned) [Example 52, (R)- or (S)-6-(4-(1-(2-fluoro-4-(trifluoromethyl)phenyl)ethyl)-1H-pyrazol-1-yl)-2-methylpyrimidin-4(3H)-one] | – | 7.2 |
| COc1cc(C(F)(F)F)ccc1[C@@H](C)n1cc(-c2cc(=O)[nH]c(C)n2)cn1 (single isomer, unassigned) [Example 2] | 43.9 | 35.3 |

Further lines, results first:

| Ki [1] [nM] | Ki [2] [nM] | SMILES |
| --- | --- | --- |
| – | 94.5 | Cc1nc(-n2cc(C3(C)OCc4cc(C(F)(F)F)ccc43)cn2)cc(=O)[nH]1 (single isomer, unassigned) [Example 28] |
| – | 105 | Cc1nc(-n2cc([C@H](CO)c3ccc(C(F)(F)F)cc3F)cn2)cc(=O)[nH]1 (single isomer, unassigned) [Example 19] |
| – | 213 | Cc1nc(-n2cc([C@]3(c4ccc(C(F)(F)F)cc4)CCCO3)cn2)cc(=O)[nH]1 (single isomer, unassigned) [Example 21] |
| – | 93 | Cc1nc(-n2cc([C@H](C)c3ccc(C(F)(F)F)cc3)cn2)cc(=O)[nH]1 (single isomer, unassigned) [Example 3] |
| 5.6 | 1.6 | COc1ccc(Cc2nc(-c3cnn(C(C)c4ccc(C(F)(F)F)cc4F)c3)cc(=O)[nH]2)cc1 (single isomer, unassigned) [Example 138, (R)- or (S)-6-(1-(1-(2-fluoro-4-(trifluoromethyl)phenyl)ethyl)-1H-pyrazol-4-yl)-2-(4-methoxybenzyl)pyrimidin-4(3H)-one] |
| 3.3 | 1.4 | COc1cc(Cc2nc(-c3cnn(C(C)c4ccc(C(F)(F)F)cc4F)c3)cc(=O)[nH]2)ccc1F (single isomer, unassigned) [Example 142, (R)- or (S)-2-(4-fluoro-3-methoxybenzyl)-6-(1-(1-(2-fluoro-4-(trifluoromethyl)phenyl)ethyl)-1H-pyrazol-4-yl)pyrimidin-4(3H)-one] |
| – | 244 | CCCC(c1ccc(C(F)(F)F)cc1)n1cc(-c2cc(=O)[nH]c(C)n2)cn1 (centres unmarked) [Example 154, 2-methyl-6-(1-(1-(4-(trifluoromethyl)phenyl)butyl)-1H-pyrazol-4-yl)pynmidin-4(3H)-one] |
| – | 29.5 | Cc1nc(-n2cc([C@H](C)c3ccc(C(F)(F)F)cc3)cn2)cc(=O)[nH]1 (single isomer, unassigned) [Example 4] |
| – | 99.3 | Cc1nc(-c2cnn(C(C)c3ccc(S(F)(F)(F)(F)F)cc3)c2)cc(=O)[nH]1 (single isomer, unassigned) [Example 63, (S)- or (R)-2-methyl-6-(1-(1-(4-(pentafluorosulfanyl)phenyl)ethyl)-1H-pyrazol-4-yl)pyrimidin-4(3H)-one] |
| 14.4 | – | CCc1nc(-c2cnn(C(C)c3ccc(C(F)(F)F)cc3F)c2)cc(=O)[nH]1 (single isomer, unassigned) [Example 85, (R)- or (S)-2-ethyl-6-(1-(1-(2-fluoro-4-(trifluoromethyl)phenyl)ethyl)-1H-pyrazol-4-yl)pyrimidin-4(3H)-one] |
